# Target: rhCETP (Homo sapiens (Human), UniProt P11597)
# Experiment: CETP in vitro assay (CETP Activity Kit, fluorescence, rhCETP)
# Assay type: biochemical
# Details: CETP inhibition; Table 1 does not name the assay; read-out: IC50 (nM), Inhibitory Activity of Compounds
# Description: CETP Activity Kit (#RB-RPAK) was purchased from Roar Biochemical, Inc. (New York, N.Y., USA). To each well of a 96-well NBS half-area plate (costar #3686), […] of the donor solution, 1 μL of the acceptor solution and 5 μL compound solution diluted in 100% DMSO were added in a 38 μL of buffer containing 10 mM Tris, 150 mM NaCl and 2 mM EDTA, pH 7.4. Then, the plate was sealed with Themowell™ Sealers (costar #6524) and followed by a mixing on a plate shaker by MICROPLATE MIXER MPX-96 (IWAKI) at power 3 for 10 sec at room temperature. After 10-min incubation at 37° C., the reaction was started by adding 5 μL of rhCETP solution (Cardiovascular Target, New York, N.Y., USA) and mixed on the plate shaker for 10 sec, then the fluorescence intensity at 0 min was measured by a ARVO SX (Perkin Elmerr, USA) at excitation wavelength of 465 nm and emission wavelength of 535 nm. After 120 min-incubation at 37° C., fluorescence intensity was measured again. The inhibition of rhCETP activity by a compound was calculated by the following calculation. Inhibition %={1−(F120−F0)/(f120−f0)}×100 F: measured fluorescence intensity with compound at 0 or 120 min. f: measured fluorescence intensity of without compound at 0 or 120 min.
# The IC50 values are determined from the dose-effect curve by Origin software. IC50 values, especially from about 0.1 nM to about 50 μM, are determined for the compounds of the present invention or a pharmaceutically acceptable salt thereof.
# rhCETP, sequence (P11597 18-493): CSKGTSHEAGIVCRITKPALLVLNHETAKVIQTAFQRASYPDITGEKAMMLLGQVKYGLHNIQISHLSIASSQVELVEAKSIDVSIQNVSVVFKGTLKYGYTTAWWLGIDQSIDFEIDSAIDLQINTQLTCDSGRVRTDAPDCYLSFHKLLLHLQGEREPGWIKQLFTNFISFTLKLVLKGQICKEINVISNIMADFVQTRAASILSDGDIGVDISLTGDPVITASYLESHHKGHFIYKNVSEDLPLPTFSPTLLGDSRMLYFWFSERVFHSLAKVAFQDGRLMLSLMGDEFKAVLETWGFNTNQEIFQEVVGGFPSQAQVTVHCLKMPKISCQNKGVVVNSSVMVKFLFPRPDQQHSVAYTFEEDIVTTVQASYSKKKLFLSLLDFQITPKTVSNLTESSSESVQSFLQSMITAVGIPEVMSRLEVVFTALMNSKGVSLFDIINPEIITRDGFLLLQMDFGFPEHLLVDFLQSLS
row,IC50,SMILES
1,92 nM,"CC[C@@H]1C[C@H](N(Cc2cc(C(F)(F)F)cc(C(F)(F)F)c2)c2ncc(-c3cnn(C)c3)cn2)CN1C(=O)C1CCCCC1 [Example 5-3, ((2R,4S)-4-{(3,5-Bis-trifluoromethyl-benzyl)-[5-(1-methyl-1H-pyrazol-4-yl)-pyrimidin-2-yl]-amino}-2-ethyl-pyrrolidin-1-yl)-cyclohexyl-methanone]"
2,69 nM,"CC[C@@H]1C[C@H](N(Cc2cc(C(F)(F)F)cc(C(F)(F)F)c2)c2ncc(-c3cnn(C)c3)cn2)CN1C(=O)OCC(C)C [Example 6-1, (2R,4S)-4-{(3,5-Bis-trifluoromethyl-benzyl)-[5-(1-methyl-1H-pyrazol-4-yl)-pyrimidin-2-yl]-amino}-2-ethyl-pyrrolidine-1-carboxylic acid isobutyl ester]"
3,47 nM,"CC[C@@H]1C[C@H](N(Cc2cc(C(F)(F)F)cc(C(F)(F)F)c2)c2ncc(-c3cnn(C)c3)cn2)CN1C(=O)OCC(C)(C)C [Example 6-2, (2R,4S)-4-{(3,5-Bis-trifluoromethyl-benzyl)-[5-(1-methyl-1H-pyrazol-4-yl)-pyrimidin-2-yl]-amino}-2-ethyl-pyrrolidine-1-carboxylic acid 2,2-dimethyl-propyl ester]"
4,60 nM,"CC[C@@H]1C[C@H](N(Cc2cc(C(F)(F)F)cc(C(F)(F)F)c2)c2ncc(-c3cnn(C)c3)cn2)CN1C(=O)OC1CCOCC1 [Example 7-4, (2R,4S)-4-{(3,5-Bis-trifluoromethyl-benzyl)-[5-(1-methyl-1H-pyrazol-4-yl)-pyrimidin-2-yl]-amino}-2-ethyl-pyrrolidine-1-carboxylic acid tetrahydro-pyran-4-yl ester]"
5,46 nM,"CC[C@@H]1C[C@H](N(Cc2cc(C(F)(F)F)cc(C(F)(F)F)c2)c2ncc(-c3cnn(C)c3)cn2)CN1C(=O)OCC1CCOCC1 [Example 7-6, (2R,4S)-4-{(3,5-Bis-trifluoromethyl-benzyl)-[5-(1-methyl-1H-pyrazol-4-yl)-pyrimidin-2-yl]-amino}-2-ethyl-pyrrolidine-1-carboxylic acid tetrahydro-pyran-4-ylmethyl ester]"
6,41 nM,"CCC(CC)OC(=O)N1C[C@@H](N(Cc2cc(C(F)(F)F)cc(C(F)(F)F)c2)c2ncc(-c3cnn(C)c3)cn2)C[C@H]1CC [Example 9-1, (2R,4S)-4-{(3,5-Bis-trifluoromethyl-benzyl)-[5-(1-methyl-1H-pyrazol-4-yl)-pyrimidin-2-yl]-amino}-2-ethyl-pyrrolidine-1-carboxylic acid 1-ethyl-propyl ester]"
7,59 nM,"CC[C@@H]1C[C@H](N(Cc2cc(C(F)(F)F)cc(C(F)(F)F)c2)c2ncc(-c3cnn(C)c3)cn2)CN1C(=O)OCC(F)(F)F [Example 9-2, (2R,4S)-4-{(3,5-Bis-trifluoromethyl-benzyl)-[5-(1-methyl-1H-pyrazol-4-yl)-pyrimidin-2-yl]-amino}-2-ethyl-pyrrolidine-1-carboxylic acid 2,2,2-trifluoro-ethyl ester]"
8,70 nM,"CC[C@@H]1C[C@H](N(Cc2cc(C(F)(F)F)cc(C(F)(F)F)c2)c2ncc(-c3cnn(C)c3)cn2)CN1C(=O)OC1CCCC1 [Example 9-3, (2R,4S)-4-{(3,5-Bis-trifluoromethyl-benzyl)-[5-(1-methyl-1H-pyrazol-4-yl)-pyrimidin-2-yl]-amino}-2-ethyl-pyrrolidine-1-carboxylic acid cyclopentyl ester]"
9,21 nM,"CC[C@@H]1C[C@H](N(Cc2cc(C(F)(F)F)cc(C(F)(F)F)c2)c2ncc(-c3cnn(C)c3)cn2)CN1C(=O)O[C@H](C)CC [Example 9-4, (2R,4S)-4-{(3,5-Bis-trifluoromethyl-benzyl)-[5-(1-methyl-1H-pyrazol-4-yl)-pyrimidin-2-yl]-amino}-2-ethyl-pyrrolidine-1-carboxylic acid (R)-sec-butyl ester]"
10,54 nM,"CC[C@@H]1C[C@H](N(Cc2cc(C(F)(F)F)cc(C(F)(F)F)c2)c2ncc(-c3cnn(C)c3)cn2)CN1C(=O)O[C@@H](C)CC [Example 9-5, (2R,4S)-4-{(3,5-Bis-trifluoromethyl-benzyl)-[5-(1-methyl-1H-pyrazol-4-yl)-pyrimidin-2-yl]-amino}-2-ethyl-pyrrolidine-1-carboxylic acid (S)-sec-butyl ester]"
11,70 nM,"CC[C@@H]1C[C@H](N(Cc2cc(C(F)(F)F)cc(C(F)(F)F)c2)c2ncc(-c3cnn(C)c3)cn2)CN1C(=O)OCC1(CC)COC1 [Example 9-6, (2R,4S)-4-{(3,5-Bis-trifluoromethyl-benzyl)-[5-(1-methyl-1H-pyrazol-4-yl)-pyrimidin-2-yl]-amino}-2-ethyl-pyrrolidine-1-carboxylic acid 3-ethyl-oxetan-3-ylmethyl ester]"
12,34 nM,"CC[C@@H]1C[C@H](N(Cc2cc(C(F)(F)F)cc(C(F)(F)F)c2)c2ncc(-c3cn[nH]c3)cn2)CN1C(=O)OC(C)C [Example 14, (2R,4S)-4-{(3,5-Bis-trifluoromethyl-benzyl)-[5-(1H-pyrazol-4-yl)-pyrimidin-2-yl]-amino}-2-ethyl-pyrrolidine-1-carboxylic acid isopropyl ester]"
13,39 nM,"CC[C@@H]1C[C@H](N(Cc2cc(C(F)(F)F)cc(C(F)(F)F)c2)c2ncc(-c3cnn(C)c3)cn2)CN1C(=O)N1CCCC1 [Example 16, ((2R,4S)-4-{(3,5-Bis-trifluoromethyl-benzyl)-[5-(1-methyl-1H-pyrazol-4-yl)-pyrimidin-2-yl]-amino}-2-ethyl-pyrrolidin-1-yl)-pyrrolidin-1-yl-methanone]"
14,25 nM,"CC[C@@H]1C[C@H](N(Cc2cc(C(F)(F)F)cc(C(F)(F)F)c2)c2ncc(-c3cnn(C)c3)cn2)CN1C(=O)N1CCCCC1 [Example 16-2, ((2R,4S)-4-{(3,5-Bis-trifluoromethyl-benzyl)-[5-(1-methyl-1H-pyrazol-4-yl)-pyrimidin-2-yl]-amino}-2-ethyl-pyrrolidin-1-yl)-piperidin-1-yl-methanone]"
15,32 nM,"CC[C@@H]1C[C@H](N(Cc2cc(C(F)(F)F)cc(C(F)(F)F)c2)c2ncc(-c3cnn(C)c3)cn2)CN1C(=O)N1CCOCC1 [Example 17, ((2R,4S)-4-{(3,5-Bis-trifluoromethyl-benzyl)-[5-(1-methyl-1H-pyrazol-4-yl)-pyrimidin-2-yl]-amino}-2-ethyl-pyrrolidin-1-yl)-morpholin-4-yl-methanone]"
16,110 nM,CC[C@@H]1C[C@H](N(Cc2cc(C(F)(F)F)cc(C(F)(F)F)c2)c2ncc(N3CC[C@H](O)C3)cn2)CN1c1nc(N2CCC(O)CC2)ncc1Cl [Example 23-6]
17,30 nM,CC[C@@H]1C[C@H](N(Cc2cc(C(F)(F)F)cc(C(F)(F)F)c2)c2ncc(-c3cnn(C)c3)cn2)CN1c1nc(N2CCC(O)CC2)ncc1Cl [Example 23-10]

row,SMILES,IC50
1,"CC[C@@H]1C[C@H](N(Cc2cc(C(F)(F)F)cc(C(F)(F)F)c2)c2ncc(N3CC[C@H](O)C3)cn2)CN1C(=O)OC(C)C [Example 11, (2R,4S)-4-{(3,5-Bis-trifluoromethyl-benzyl)-[5-((S)-3-hydroxy-pyrrolidin-1-yl)-pyrimidin-2-yl]-amino}-2-ethyl-pyrrolidine-1-carboxylic acid isopropyl ester]",72 nM
2,"CC[C@@H]1C[C@H](N(Cc2cc(C(F)(F)F)cc(C(F)(F)F)c2)c2ncc(-c3cnn(C)c3)cn2)CN1C(=O)N(C)C [Example 18, (2R,4S)-4-{(3,5-Bis-trifluoromethyl-benzyl)-[5-(1-methyl-1H-pyrazol-4-yl)-pyrimidin-2-yl]-amino}-2-ethyl-pyrrolidine-1-carboxylic acid dimethylamide]",63 nM

# — patent publication US8759365B2, “Organic compounds” (Novartis AG, priority 2007, dated 2014)
